Laboratory results reported in patent US9365520B2, “Heterocyclic compound” (Takeda Pharmaceutical Company Limited, priority 2014, dated 2016).

Tests used:
[1] = system: T cell-transferred mouse colitis model; assay: Effect in a T cell-transferred mouse colitis model; format: in vivo, mice; details: 3 mg/kg oral twice daily; 21 days after cell transfer; versus the negative control group
Excerpt: Effect in a T Cell-Transferred Mouse Colitis Model
Balb/c mice (Charles River Japan, female, 8 weeks old) were euthanized, and the spleens were resected, mashed in mesh, and passed through cell strainer to prepare a suspension of splenic cells. The mononuclear cell fraction in the splenic cells was isolated by density-gradient centrifugation, and subjected to hemolysis treatment with ammonium chloride buffer solution (Immuno-Biological Laboratories, Co., Ltd.). The naive T-cells were purified using CD4+CD62L+ T Cell Isolation Kit II (Miltenyi Biotec). The naive T-cells (2×10^5 cells/mouse) were intravenously transferred into SCIDmice (CLEA Japan, female, 8 weeks old). The compound was suspended in 0.5% methyl cellulose, and the suspension was orally administered twice daily on consecutive days from the same evening of the cell transfer. The mice were blinded 20 days after the cell transfer, and the symptom of the stool on floorcloth under blind was evaluated by scores of 1 to 4 (1: normal, 2: loose stool, 3: diarrhea (formed), 4: diarrhea (unformed)) 21 days after the cell transfer. […] The large intestine was washed with saline, and the weight was measured.
The results (percent inhibition of intestinal tract weight and diarrhea score with oral administration of the test compound) measured by the above-mentioned method are shown in Table 11.

[2] = system: mouse EAE model; assay: Effect in a mouse EAE model; format: in vivo, C57BL/6J mice; details: 3 mg/kg oral; integration value of the clinical score for 28 days; versus the negative control group
Protocol: Effect in a Mouse EAE Model
. C57BL/6J mice (10 weeks old, female, Charles River Japan) were grouped based on the body weight, and the MOG emulsion was intradermally administered at two point of the joint of dorsal hindlimb so that the dose was 100 μL/site, 200 μL/mouse. In addition, Pertussis toxin (Merck) was intraperitoneally administered twice on the sensitization day and 2 days thereafter in the dose of 400 ng/200 μL/mouse. The body weight was measured twice a week before onset and everyday (excluding holiday) after onset from the sensitization day. The clinical score was evaluated by the following standard scores of 0 to 5 (0: normal, 0.5: partial paralysis of tail, 1: complete paralysis of tail, 2: partial paralysis of hindlimb, 3: paralysis of lower body, 4: partial paralysis of forelimb, 5: paralysis of both forelimbs or death) by observation everyday (excluding holiday) after the beginning of onset.
The percent inhibition of the clinical score of the test compound administration group relative to that of the control group was calculated using integration value of the clinical score for 28 days.
The results (percent inhibition of clinical score with oral administration of the test compound) measured by the above-mentioned method are shown in Table 12.

[3] = system: IL-17A gene expression; assay: Effect on IL-23-induced cytokine expression in mice; format: in vivo, Balb/c mice; details: Mus musculus, 24 h, 30 min before and 8 hr after IL-23, ear tissue, versus the negative control group, read-out: percent inhibition of IL-17A gene expression; for inhibition in vivo at 10 mg/kg: 10 mg/kg oral
Protocol: Effect on IL-23-Induced Cytokine Expression in Mice
A mouse IL-23 solution (500 ng/10 μL, prepared by Takeda Pharmaceutical Company Limited) or PBS (10 μL, negative control group) was administered intradermally in the ear of Balb/c mice (Charles River Japan, male, 7 weeks old). Twenty-four hr after administration, the ear was resected under isoflurane anesthesia. The test compound was suspended in 0.5% methylcellulose and administered orally 30 min before and 8 hr after IL-23 administration.
RNA extraction from the ear tissue and quantitative PCR were performed as follows. Specifically, ear tissue 5 mm in diameter was punched from an area of the resected ear centering on the IL-23 injection site, and the tissue was immersed in RNAlater (QIAGEN) for at least 18 hr. The RNAlater-treated ear tissue was homogenized in 350 μL of RLT buffer (RNeasy mini kit, QIAGEN) and treated (55° C., 10 min) with Proteinase K (QIAGEN). Total RNA was then extracted according to the RNeasy mini kit protocol. The RNA thus obtained was then reverse transcribed into cDNA using the High-Capacity RNA-to-cDNA kit (Applied Biosystems), and the amount of each gene expressions was measured by real-time PCR (Viia7™, Applied Biosystems). The PCR buffer used was TaqMan Fast Advanced Master Mix (Applied Biosystems), and TaqMan Gene Expression Assays (Applied Biosystems) Mm00439618_m1 (IL-17A) and 4352341E (β-actin) were used for each gene detection. The IL-17A gene expression level was normalized to the β-actin gene expression level, and the percent inhibition of IL-17A gene expression with the test compound was then calculated.
The results (percent inhibition of IL-17A gene expression with oral administration of the test compound) measured by the above-mentioned method are shown in Table 9.

[4] = system: IL-23-induced mouse psoriasis model; assay: Effect in an IL-23-induced mouse psoriasis model; format: in vivo, Balb/c mice; details: versus the negative control group
Protocol: Effect in an IL-23-Induced Mouse Psoriasis Model
Mouse IL-23 (500 ng/15 μL, R&D) or PBS (15 μL, negative control group) was administered intradermally in the ear of Balb/c mice (Charles River Japan, male, 7 weeks old) 5 times every other days. Seven hr after IL-23 administration at 8 days after the initial administration (final administration), the mice were anesthetized with isoflurane, and ear thickness was measured with calipers. After the ear thickness was measured, the ear was resected, tissue 8 mm in diameter was punched from an area centering on the IL-23 injection site, and the tissue was weighed. The punched ear tissue was cut in half, and one half was immersion-fixed in 10% neutral buffer formalin solution for use in histopathological evaluation. The other half was immersed in RNAlater (QIAGEN) for at least 18 hr for use in an evaluation of the IL-17A mRNA expression level. The test compound was suspended in 0.5% methylcellulose and administered orally twice daily on consecutive days from 30 min before the initial IL-23 administration to 30 min before the final IL-23 administration.
The change in ear thickness in this model was evaluated by calculating the difference in measured thickness between before IL-23 administration and 7 hr after the final IL-23 administration. In addition, the formalin-fixed tissue was embedded and sectioned, then stained with hematoxylin-eosin. The degree of acanthosis was then evaluated qualitatively by microscopy (classified with a score of 0 to 4). RNA extraction from the ear tissue and quantitative PCR were performed as follows. As described above, ear tissue treated with RNAlater (QIAGEN) was homogenized in 350 μL of RLT buffer (RNeasy mini kit, QIAGEN) and treated (55° C., 10 min) with Proteinase K (QIAGEN). Total RNA was then extracted according to the RNeasy mini kit protocol. The RNA thus obtained was reverse transcribed into cDNA using the High-Capacity RNA-to-cDNA kit (Applied Biosystems), and the expression of each gene was measured by real-time PCR (Viia7™, Applied Biosystems). The PCR buffer used was TaqMan Fast Advanced Master Mix (Applied Biosystems), and TaqMan Gene Expression Assays (Applied Biosystems) Mm00439618_ml (IL-17A) and 4352341E (β-actin) were used to detect the genes. The IL-17A gene expression level was normalized to the β-actin gene expression level, and the percent inhibition of IL-17A gene expression with the test compound was then calculated.
The results (percent inhibition of ear thickness, acanthosis score and IL-17A gene expression with oral administration of the test compound) measured by the above-mentioned method are shown in Table 10.

Q: With COc1ccc2c(n1)CCN(C(=O)[C@H]1C[C@@H](CC(=O)O)C1)[C@H]2C(=O)Nc1cc(F)c2c(c1)CCC2(C)C [Example 15, (cis-3-(((5R)-5-((7-fluoro-1,1-dimethyl-2,3-dihydro-1H-inden-5-yl)carbamoyl)-2-methoxy-7,8-dihydro-1,6-naphthyridin-6(5H)-yl)carbonyl)cyclobutyl)acetic acid] as the compound, how does the “percent inhibition of diarrhea score” value [1] read?
A: The value was 81%.

Q: What about the “percent inhibition of intestinal tract weight” value [1] of the same compound?
A: Its value is 58%.

Q: What about the “percent inhibition of clinical score” value [2] of the same compound?
A: Its value is 64%.

Q: And the inhibition in vivo at 3 mg/kg ([3]; 3 mg/kg oral)?
A: Its inhibition in vivo at 3 mg/kg is 99%.

Q: What about the “percent inhibition of IL-17A expression” value ([4]; 3 mg/kg oral twice daily) of the same compound?
A: Its value is 93%.

Q: What about the “percent inhibition of acanthosis score” value ([4]; 3 mg/kg oral twice daily) of the same compound?
A: Its value is 53%.

Q: What about the “percent inhibition of ear thickness” value ([4]; 3 mg/kg oral twice daily) of the same compound?
A: The value was 61%.

Q: Which inhibition in vivo at 10 mg/kg [3] does the source give for COc1ccc2c(n1)CCN(C(=O)[C@H]1C[C@@H](CC(=O)O)C1)[C@H]2C(=O)Nc1cc(F)c([Si](C)(C)C)c(F)c1 [Example 23, (cis-3-(((5R)-5-((3,5-difluoro-4-(trimethylsilyl)phenyl)carbamoyl)-2-methoxy-7,8-dihydro-1,6-naphthyridin-6(5H)-yl)carbonyl)cyclobutyl)acetic acid] here?
A: The inhibition in vivo at 10 mg/kg was 96%.

Q: Which inhibition in vivo at 10 mg/kg [3] does the source give for CCOCC(C)(C)c1c(F)cc(NC(=O)[C@H]2c3ccc(OCC)cc3CCN2C(=O)[C@H]2C[C@@H](CC(=O)O)C2)cc1F [Example 18, (cis-3-(((1R)-6-ethoxy-1-((4-(1-ethoxy-2-methylpropan-2-yl)-3,5-difluorophenyl)carbamoyl)-3,4-dihydroisoquinolin-2(1H)-yl)carbonyl)cyclobutyl)acetic acid] here?
A: The inhibition in vivo at 10 mg/kg was 72%.

Q: How did the inhibition in vivo at 10 mg/kg [3] turn out when COc1ccc2c(n1)CCN(C(=O)[C@H]1C[C@@H](C(=O)OCc3ccccc3)C1)[C@H]2C(=O)Nc1cc(F)c2c(c1)CCC2(C)C [Example 36, benzyl cis-3-(((5R)-5-((7-fluoro-1,1-dimethyl-2,3-dihydro-1H-inden-5-yl)carbamoyl)-2-methoxy-7,8-dihydro-1,6-naphthyridin-6(5H)-yl)carbonyl)cyclobutanecarboxylate] was run?
A: The inhibition in vivo at 10 mg/kg was 78%.

Q: Which inhibition in vivo at 10 mg/kg [3] does the source give for COc1ccc2c(c1)CCN(C(=O)[C@H]1C[C@@H](C(=O)O)C1)[C@H]2C(=O)Nc1ccc([Si](C)(C)C)c(F)c1 [Example 32, cis-3-(((1R)-1-((3-fluoro-4-(trimethylsilyl)phenyl)carbamoyl)-6-methoxy-3,4-dihydroisoquinolin-2(1H)-yl)carbonyl)cyclobutanecarboxylic acid] here?
A: The inhibition in vivo at 10 mg/kg was 83%.

Q: COc1ccc2c(c1)CCN(C(=O)C1CC(CC(=O)O)C1)[C@H]2C(=O)Nc1cc(F)c([Si](C)(C)C)c(F)c1 (stereo partly drawn) [Example 4, (3-(((1R)-1-((3,5-difluoro-4-(trimethylsilyl)phenyl)carbamoyl)-6-methoxy-3,4-dihydroisoquinolin-2(1H)-yl)carbonyl)cyclobutyl)acetic acid] was tested. Which inhibition in vivo at 10 mg/kg [3] did it give?
A: The inhibition in vivo at 10 mg/kg was 86%.

Q: With COCc1ccc2c(c1)CCN(C(=O)[C@H]1C[C@@H](CC(=O)O)C1)[C@H]2C(=O)Nc1cc(F)c2c(c1)CCC2(C)C [Example 19, (cis-3-(((1R)-1-((7-fluoro-1,1-dimethyl-2,3-dihydro-1H-inden-5-yl)carbamoyl)-6-(methoxymethyl)-3,4-dihydroisoquinolin-2(1H)-yl)carbonyl)cyclobutyl)acetic acid] as the compound, how does the inhibition in vivo at 10 mg/kg [3] read?
A: Its inhibition in vivo at 10 mg/kg is 90%.

Q: How did the inhibition in vivo at 10 mg/kg [3] turn out when COc1ccc2c(n1)CCN(C(=O)[C@H]1C[C@@H]1CC(=O)O)[C@H]2C(=O)Nc1cc(F)c2c(c1)CCC2(C)C [Example 6, ((1R,2S)-2-(((5R)-5-((7-fluoro-1,1-dimethyl-2,3-dihydro-1H-inden-5-yl)carbamoyl)-2-methoxy-7,8-dihydro-1,6-naphthyridin-6(5H)-yl)carbonyl)cyclopropyl)acetic acid] was run?
A: Its inhibition in vivo at 10 mg/kg is 95%.

Q: For COc1ccc2c(n1)CCN(C(=O)[C@H]1C[C@@H](C(=O)O)C1)[C@H]2C(=O)Nc1cc(F)c2c(c1)CCC2(C)C [Example 10], which inhibition in vivo at 10 mg/kg [3] is on record?
A: Its inhibition in vivo at 10 mg/kg is 87%.

Q: And the “percent inhibition of IL-17A expression” value ([4]; 1 mg/kg oral twice daily)?
A: The value was 91%.

Q: What about the “percent inhibition of acanthosis score” value ([4]; 1 mg/kg oral twice daily) of the same compound?
A: The value was 47%.

Q: And the “percent inhibition of ear thickness” value ([4]; 1 mg/kg oral twice daily)?
A: The value was 52%.

Q: Which inhibition in vivo at 10 mg/kg [3] does the source give for COCc1ccc2c(c1)CCN(C(=O)[C@H]1C[C@H](CC(=O)O)C1)[C@H]2C(=O)Nc1cc(F)c2c(c1)CCC2(C)C [Example 24, (trans-3-(((1R)-1-((7-fluoro-1,1-dimethyl-2,3-dihydro-1H-inden-5-yl)carbamoyl)-6-(methoxymethyl)-3,4-dihydroisoquinolin-2(1H)-yl)carbonyl)cyclobutyl)acetic acid] here?
A: The inhibition in vivo at 10 mg/kg was 74%.
